The values that follow come from BindingDB's records for doi:10.1002/bip.20588 (University of California Davis, 2006).

*1 amine or outer side, *2 acyl side, *3 side chain or, on linkers, in order; H or OH if unused. Where a SMILES comes first, the peptide text is derived from it. [ ]: non-standard residue; d: D form. The star is where a group is joined. ξ: configuration not given here. Phac(3-amino) = O=C(Cc1cccc(N[*:1])c1)[*:2]; X5 = O=C(c1ccc(-c2ccc(N[*:1])cc2)o1)[*:2]; X7 = O=C(c1ccc(-c2cccc(N[*:1])c2)o1)[*:2]; X13 = CC(C(=O)[*:2])c1ccc(N[*:1])cc1; X2 = O=C(/C=C/c1ccc(N[*:1])cc1)[*:2]; NH(2,6-Me2-phenyl) = Cc1cccc(C)c1N*; X14 = Cc1ccccc1NC(=O)Nc1ccc(N*)cc1; X3 = O=C(CCCc1ccc(N[*:1])cc1)[*:2]; X9 = Cc1ccccc1NC(=O)Nc1cccc(N*)c1; Ala(cPr) = N[C@@H](CC1CC1)C(=O)O; X1 = O=C(Cc1ccc(N[*:1])cc1)[*:2]; X8 = O=C(COc1ccccc1N[*:1])[*:2]; Ile(3ξ) = CCC(C)[C@H](N)C(=O)O; NH(2-Me-phenyl) = Cc1ccccc1N*; Tle = CC(C)(C)[C@H](N)C(=O)O; X12 = c1ccc(Oc2ccccc2N*)cc1; Isovaleryl = CC(C)CC(=O)*; 4Abz = Nc1ccc(C(=O)O)cc1; Nle = CCCC[C@H](N)C(=O)O; Dap = NC[C@H](N)C(=O)O; X11 = CC(C)c1ccccc1N*; CO = O=C([*:1])[*:2]

The first test concerns the target Integrin alpha-4/beta-1 (Homo sapiens, UniProt P05556+P13612, T112H). The experiment in a line: Jurkat Cell Adhesion Inhibition Assay.
Settings: not given
Here is the method:
Binding affinities (IC50) of the ligands were studied in a Jurkat cell adhesion assay by inhibiting the alpha-4/beta-1 mediated cell adhesion to CS-1 peptides. The 96-well plates were coated with neutravidin, followed by biotinconjugated CS-1 peptides. Jurkat cells with series dilutions of tested ligands in binding buffer were added and allowed to bind for 30 min. Bound cells were recorded using a 96-well plate reader at 570 nm. IC50 values were calculated from inhibition curves resulting from the concentration-dependent inhibition
One may read the IC50 as the midpoint of a concentration-inhibition curve. Read a high IC50 as weaker potency in that assay. The compound `CCCC[C@H](NC(=O)Cc1cccc(NC(=O)Nc2ccccc2C)c1)C(=O)N[C@@H](CC(=O)O)C(=O)N[C@H](C(=O)N1CCC[C@H]1C(N)=O)C(C)CC` (stereo partly drawn) [(3S)-3-{[(2S,3S)-1-[(2S)-2-carbamoylpyrrolidin-1-yl]-3-methyl-1-oxopentan-2-yl]carbamoyl}-3-[(2S)-2-[1-(3-{[(2-methylphenyl)carbamoyl]amino}phenyl)acetamido]hexanamido]propanoic acid] ({NH(2-Me-phenyl)-CO}-[Phac(3-amino)][Nle]D[Ile(3ξ)]P-NH2) yielded an IC50 of 140 nM. On the same count and under the same terms, to `CCCC[C@H](NC(=O)Cc1ccc(NC(=O)Nc2c(C)cccc2C)cc1)C(=O)N[C@@H](CC(=O)O)C(=O)N[C@H](C(=O)N1CCC[C@H]1C(N)=O)C(C)CC` (stereo partly drawn) [(3S)-3-{[(2S,3S)-1-[(2S)-2-carbamoylpyrrolidin-1-yl]-3-methyl-1-oxopentan-2-yl]carbamoyl}-3-[(2S)-2-[1-(4-{[(2,6-dimethylphenyl)carbamoyl]amino}phenyl)acetamido]hexanamido]propanoic acid] ({NH(2,6-Me2-phenyl)-CO}-[X1][Nle]D[Ile(3ξ)]P-NH2) belongs 7.2 nM; to `CCCC[C@H](NC(=O)Cc1ccc(NC(=O)Nc2ccccc2Oc2ccccc2)cc1)C(=O)N[C@@H](CC(=O)O)C(=O)N[C@H](C(=O)N1CCC[C@H]1C(N)=O)C(C)CC` (stereo partly drawn) [(3S)-3-{[(2S,3S)-1-[(2S)-2-carbamoylpyrrolidin-1-yl]-3-methyl-1-oxopentan-2-yl]carbamoyl}-3-[(2S)-2-[1-(4-{[(2-phenoxyphenyl)carbamoyl]amino}phenyl)acetamido]hexanamido]propanoic acid] ({X12-CO}-[X1][Nle]D[Ile(3ξ)]P-NH2), 500 nM; to `CCCC[C@H](NC(=O)COc1ccccc1NC(=O)Nc1ccccc1C)C(=O)N[C@@H](CC(=O)O)C(=O)N[C@H](C(=O)N1CCC[C@H]1C(N)=O)C(C)CC` (stereo partly drawn) [(3S)-3-{[(2S,3S)-1-[(2S)-2-carbamoylpyrrolidin-1-yl]-3-methyl-1-oxopentan-2-yl]carbamoyl}-3-[(2S)-2-[2-(2-{[(2-methylphenyl)carbamoyl]amino}phenoxy)acetamido]hexanamido]propanoic acid] ({NH(2-Me-phenyl)-CO}-[X8][Nle]D[Ile(3ξ)]P-NH2), 463 nM. The compound `CCCC[C@H](NC(=O)C(C)c1ccc(NC(=O)Nc2ccccc2C)cc1)C(=O)N[C@@H](CC(=O)O)C(=O)N[C@H](C(=O)N1CCC[C@H]1C(N)=O)C(C)CC` (stereo partly drawn) [(3S)-3-{[(2S,3S)-1-[(2S)-2-carbamoylpyrrolidin-1-yl]-3-methyl-1-oxopentan-2-yl]carbamoyl}-3-[(2S)-2-[2-(4-{[(2-methylphenyl)carbamoyl]amino}phenyl)propanamido]hexanamido]propanoic acid] ({NH(2-Me-phenyl)-CO}-[X13][Nle]D[Ile(3ξ)]P-NH2) registered a half-inhibitory concentration (IC50) of 3.1 nM. Still for that read-out and setting: to `CCCC[C@H](NC(=O)CCCc1ccc(NC(=O)Nc2ccccc2C)cc1)C(=O)N[C@@H](CC(=O)O)C(=O)N[C@H](C(=O)N1CCC[C@H]1C(N)=O)C(C)CC` (stereo partly drawn) [(3S)-3-{[(2S,3S)-1-[(2S)-2-carbamoylpyrrolidin-1-yl]-3-methyl-1-oxopentan-2-yl]carbamoyl}-3-[(2S)-2-[4-(4-{[(2-methylphenyl)carbamoyl]amino}phenyl)butanamido]hexanamido]propanoic acid] ({NH(2-Me-phenyl)-CO}-[X3][Nle]D[Ile(3ξ)]P-NH2) belongs 100 nM; to `CCCC[C@H](NC(=O)/C=C/c1ccc(NC(=O)Nc2ccccc2C)cc1)C(=O)N[C@@H](CC(=O)O)C(=O)N[C@H](C(=O)N1CCC[C@H]1C(N)=O)C(C)CC` (stereo partly drawn) [(3S)-3-{[(2S,3S)-1-[(2S)-2-carbamoylpyrrolidin-1-yl]-3-methyl-1-oxopentan-2-yl]carbamoyl}-3-[(2S)-2-[(2E)-3-(4-{[(2-methylphenyl)carbamoyl]amino}phenyl)prop-2-enamido]hexanamido]propanoic acid] ({NH(2-Me-phenyl)-CO}-[X2][Nle]D[Ile(3ξ)]P-NH2), 4.4 nM; to `CCCC[C@H](NC(=O)c1ccc(NC(=O)Nc2ccccc2C)cc1)C(=O)N[C@@H](CC(=O)O)C(=O)N[C@H](C(=O)N1CCC[C@H]1C(N)=O)C(C)CC` (stereo partly drawn) [(3S)-3-{[(2S,3S)-1-[(2S)-2-carbamoylpyrrolidin-1-yl]-3-methyl-1-oxopentan-2-yl]carbamoyl}-3-[(2S)-2-[(4-{[(2-methylphenyl)carbamoyl]amino}phenyl)formamido]hexanamido]propanoic acid] ({NH(2-Me-phenyl)-CO-4Abz}-[Nle]D[Ile(3ξ)]P-NH2), 3000 nM. The same measure, in the same setting: the result for `CCCC[C@H](NC(=O)Cc1ccc(NC(=O)Nc2ccccc2C(C)C)cc1)C(=O)N[C@@H](CC(=O)O)C(=O)N[C@H](C(=O)N1CCC[C@H]1C(N)=O)C(C)CC` (stereo partly drawn) [(3S)-3-{[(2S,3S)-1-[(2S)-2-carbamoylpyrrolidin-1-yl]-3-methyl-1-oxopentan-2-yl]carbamoyl}-3-[(2S)-2-{1-[4-({[2-(propan-2-yl)phenyl]carbamoyl}amino)phenyl]acetamido}hexanamido]propanoic acid] ({X11-CO}-[X1][Nle]D[Ile(3ξ)]P-NH2) reads 531 nM; that for `CCCC[C@H](NC(=O)c1ccc(-c2cccc(NC(=O)Nc3ccccc3C)c2)o1)C(=O)N[C@@H](CC(=O)O)C(=O)N[C@H](C(=O)N1CCC[C@H]1C(N)=O)C(C)CC` (stereo partly drawn) [(3S)-3-{[(2S,3S)-1-[(2S)-2-carbamoylpyrrolidin-1-yl]-3-methyl-1-oxopentan-2-yl]carbamoyl}-3-[(2S)-2-{[5-(3-{[(2-methylphenyl)carbamoyl]amino}phenyl)furan-2-yl]formamido}hexanamido]propanoic acid] ({NH(2-Me-phenyl)-CO}-[X7][Nle]D[Ile(3ξ)]P-NH2), 325 nM. Same read-out and setting: to `CCCC[C@H](NC(=O)c1ccc(-c2ccc(NC(=O)Nc3ccccc3C)cc2)o1)C(=O)N[C@@H](CC(=O)O)C(=O)N[C@H](C(=O)N1CCC[C@H]1C(N)=O)C(C)CC` (stereo partly drawn) [(3S)-3-{[(2S,3S)-1-[(2S)-2-carbamoylpyrrolidin-1-yl]-3-methyl-1-oxopentan-2-yl]carbamoyl}-3-[(2S)-2-{[5-(4-{[(2-methylphenyl)carbamoyl]amino}phenyl)furan-2-yl]formamido}hexanamido]propanoic acid] ({NH(2-Me-phenyl)-CO}-[X5][Nle]D[Ile(3ξ)]P-NH2) belongs 340 nM; to `CCCC[C@H](NC(=O)Nc1cccc(NC(=O)Nc2ccccc2C)c1)C(=O)N[C@@H](CC(=O)O)C(=O)N[C@H](C(=O)N1CCC[C@H]1C(N)=O)C(C)CC` (stereo partly drawn) [(3S)-3-{[(2S,3S)-1-[(2S)-2-carbamoylpyrrolidin-1-yl]-3-methyl-1-oxopentan-2-yl]carbamoyl}-3-[(2S)-2-{[(3-{[(2-methylphenyl)carbamoyl]amino}phenyl)carbamoyl]amino}hexanamido]propanoic acid] ({X9-CO}-[Nle]D[Ile(3ξ)]P-NH2), 3080 nM; to `CCCC[C@H](NC(=O)Nc1ccc(NC(=O)Nc2ccccc2C)cc1)C(=O)N[C@@H](CC(=O)O)C(=O)N[C@H](C(=O)N1CCC[C@H]1C(N)=O)C(C)CC` (stereo partly drawn) [(3S)-3-{[(2S,3S)-1-[(2S)-2-carbamoylpyrrolidin-1-yl]-3-methyl-1-oxopentan-2-yl]carbamoyl}-3-[(2S)-2-{[(4-{[(2-methylphenyl)carbamoyl]amino}phenyl)carbamoyl]amino}hexanamido]propanoic acid] ({X14-CO}-[Nle]D[Ile(3ξ)]P-NH2), 54 nM. In the case of `CCC(C)[C@H](NC(=O)[C@H](CC(=O)O)NC(=O)[C@@H](NC(=O)Cc1ccc(NC(=O)Nc2ccccc2C)cc1)C(C)(C)C)C(=O)N1CCC[C@H]1C(N)=O` (stereo partly drawn) [(3S)-3-{[(2S,3S)-1-[(2S)-2-carbamoylpyrrolidin-1-yl]-3-methyl-1-oxopentan-2-yl]carbamoyl}-3-[(2S)-3,3-dimethyl-2-[1-(4-{[(2-methylphenyl)carbamoyl]amino}phenyl)acetamido]butanamido]propanoic acid] ({NH(2-Me-phenyl)-CO}-[X1][Tle]D[Ile(3ξ)]P-NH2), half-maximal inhibition (IC50) was put at 7.1 nM. The same measure, in the same setting: to `CCC(C)[C@H](NC(=O)[C@H](CC(=O)O)NC(=O)[C@H](CNC(=O)CC(C)C)NC(=O)Cc1ccc(NC(=O)Nc2ccccc2C)cc1)C(=O)N1CCC[C@H]1C(N)=O` (stereo partly drawn) [(3S)-3-{[(2S,3S)-1-[(2S)-2-carbamoylpyrrolidin-1-yl]-3-methyl-1-oxopentan-2-yl]carbamoyl}-3-[(2S)-3-(3-methylbutanamido)-2-[1-(4-{[(2-methylphenyl)carbamoyl]amino}phenyl)acetamido]propanamido]propanoic acid] ({NH(2-Me-phenyl)-CO}-[X1][Dap](Isovaleryl)D[Ile(3ξ)]P-NH2) belongs 63 nM; to `CCC(C)[C@H](NC(=O)[C@H](CC(=O)O)NC(=O)[C@H](CC1CC1)NC(=O)Cc1ccc(NC(=O)Nc2ccccc2C)cc1)C(=O)N1CCC[C@H]1C(N)=O` (stereo partly drawn) [(3S)-3-{[(2S,3S)-1-[(2S)-2-carbamoylpyrrolidin-1-yl]-3-methyl-1-oxopentan-2-yl]carbamoyl}-3-[(2S)-3-cyclopropyl-2-[1-(4-{[(2-methylphenyl)carbamoyl]amino}phenyl)acetamido]propanamido]propanoic acid] ({NH(2-Me-phenyl)-CO}-[X1][Ala(cPr)]D[Ile(3ξ)]P-NH2), 64 nM.

Still in this test, the particulars now being: pH 7.5; 22 °C.
For `CCCC[C@H](NC(=O)Cc1ccc(NC(=O)Nc2ccccc2C)cc1)C(=O)N[C@@H](CC(=O)O)C(=O)N[C@H](C(=O)N1CCC[C@H]1C(N)=O)C(C)CC` (stereo partly drawn) [(3S)-3-{[(2S,3S)-1-[(2S)-2-carbamoylpyrrolidin-1-yl]-3-methyl-1-oxopentan-2-yl]carbamoyl}-3-[(2S)-2-[1-(4-{[(2-methylphenyl)carbamoyl]amino}phenyl)acetamido]hexanamido]propanoic acid], the half-maximal inhibitory concentration (IC50) was found to be 1.4 nM.
